One data set concerns HIF1α, VEGFA. The experiment in a line: Western blot and immunocytochemistry in HIF1α transfected HCT116 cells. Format: cell-based, human. The method, then:
(§1) HCT116 cells were transiently transfected with HA-HIF1α-pcDNA3 plasmid (Addgene, USA, Plasmid #18949) by using lipofectamineTM 2000 (Thermo Fisher Scientific, USA) according to the manufacturer’s instructions. After 24 h of transfection, those cells were subjected to various experiments.

Details of data set [1]: method as in Tan et al. [2013]; Chagas et al. [2020]; Zhang et al. [2007]. The settings on record: ref Tan et al. [2013]; Chagas et al. [2020]; Zhang et al. [2007]; cited from earlier work.
The test system of data set [2] is CD44+/CD133+ cell population in HIF1α transfected HCT116 derived tumorospheres. As to the kind of experiment: Flow cytometry of CD44+/CD133+ cells in CES from HIF1α transfected HCT116 cells. Format: cell-based, human. The note with it: transfected control 28.9%. The method, then:
as §1
Percentages of CD44^+/CD133^+ cell population were determined within tumorospheres and HIF1α positive cells were determined within the CD44^+/CD133^+ cell population using a flow cytometer (BD LSRFortessa™ X-20) and analyzed by BD FACSDiva™ software.

The nature of data set [3]: Toxicity of Orientin alone in mice, 28 days. The class given is in vivo, BALB/c mice. Here is the method:
To determine the toxicity of only Orientin treatment in various doses, the mice were divided into five groups. Each group contained six animals (n = 6). Each animal of the vehicle control group (VC) was left untreated, while, mice of other four groups were administered Orientin intravenously with 1 mg/kg b.w, 3 mg/kg b.w, 5 mg/kg b.w and 10 mg/kg b.w dosage respectively for 28 days. […] All the treatments were continued for 10 days. On day 11 all the mice were sacrificed and different parameters were studied.
Glutathione-S-transferase (GST), superoxide dismutase (SOD), Catalase (CAT), Glutathione peroxidase (GPx) and reduced glutathione (GSH) activity in hepatic tissue were assessed as described previously (Hajra et al. [2018b]). Values of all the parameters were calculated with respect to the amount of total protein present in liver homogenates.
Various organs and solid tumors collected after sacrificing the mice were embedded into paraffin after 10% neutral buffered formalin fixation. 4 μm sections were prepared and used for histopathological study. Standard Hematoxylin and Eosin (H&E) staining protocol was used and sections were visualized under light microscope (DM 1000, Leica, Germany) (Hajra et al. [2018a]).

Consider `O=c1cc(-c2ccc(O)c(O)c2)oc2c([C@@H]3O[C@H](CO)[C@@H](O)[C@H](O)[C@H]3O)c(O)cc(O)c12` [Orientin], for which the “HIF1α and VEGFA expression by immunocytochemistry” value in the data set on HIF1α, VEGFA is on record as “reduced”. Further, in data set [1], the excretion entry is reported as “excreted primarily through urine”, the metabolism result was “hepatic metabolism via CYP450 enzymes” and the tissue distribution result is “widely distributed in different tissues”. Also, the “CD44+/CD133+ cell population” value in data set [2] is listed as 16.4%. The “hepatic GSH and activity of GST, GPx, SOD and CAT” value in data set [3] (5 mg/kg b.w Orientin i.v., 28 days) is reported as “increase”. In data set [3] (5 mg/kg b.w Orientin i.v., 28 days, vs control), the “hepatic LPO level” value was “significantly decreased”. In data set [3] (5 mg/kg b.w Orientin, vs control), the “histopathology of liver, heart, lung and kidney” value is given as “no histopathological changes”.

Values taken from PMC11881437 (Molecular Medicine, 2025).
